Measurements taken from patent US20230255906A1, “Targeting Serpin B9 in Cancer” (The Brigham and Women`s Hospital, Inc., priority 2020, published 2023).

Key:
MBP = MBP (Escherichia coli, UniProt P0AEX9); assay: SPR negative control channel; type: binding
Protocol: FIG. 4B. Sensorgrams of compounds 3,4-dihydroxybenzoic acid (top), 3-oxo-1-indancarboxylic acid (middle), and the compound of Formula (III) (bottom) show the binding of 3,4-dihydroxybenzoic acid and the compound of Formula (III) to Sb9 (top), but not to MBP (bottom) by Surface Plasmon Resonance (SPR).
All assays were run at 25° C. on a BiOptix 404pi. An NTA biosensor chip was used in this study to pre-concentrate 3 μM MBP-Sb9 via an N-terminal His-tag. MBP-Sb9 was covalently immobilized with EDC/NHS in 20 mM HEPES pH 8.0, 150 mM NaCl, 0.05% Tween-20, 5 mM β-ME to 10,000 to 15,000 RUs. MBP was similarly immobilized on a separate channel as a negative control.

MBP-Sb9 = target: T1, MBP-Sb9 (Homo sapiens, UniProt P50453); assay: Saturation-Transfer Difference (STD) NMR assay; type: binding
T1 construct: made in house
T1 sequence (P50453 2-376): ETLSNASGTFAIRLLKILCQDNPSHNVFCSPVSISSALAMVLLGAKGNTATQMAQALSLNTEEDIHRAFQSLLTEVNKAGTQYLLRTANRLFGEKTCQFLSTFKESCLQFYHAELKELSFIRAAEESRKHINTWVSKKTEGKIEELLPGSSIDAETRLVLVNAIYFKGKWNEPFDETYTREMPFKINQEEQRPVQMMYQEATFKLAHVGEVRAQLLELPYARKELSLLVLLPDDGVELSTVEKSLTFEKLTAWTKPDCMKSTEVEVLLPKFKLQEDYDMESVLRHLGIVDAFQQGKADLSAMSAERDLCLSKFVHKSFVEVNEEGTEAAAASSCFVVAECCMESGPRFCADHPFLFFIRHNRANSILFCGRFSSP
Excerpt: The Saturation-Transfer Difference (STD) NMR assay was used to evaluate the binding of the compound of Formula (III) to Sb9. […] The saturation period was 3.0 seconds with irradiation at 0 ppm (on-resonance excitation) and −20 ppm (off-resonance excitation). The number of scans was 160 for the on and off-resonance spectra, respectively. Spectra were processed using Topspin software and apodized with exponential multiplication with 1.0 Hz line-broadening.
The Saturation-Transfer Difference (STD) NMR assay was used to evaluate the binding of the compounds of Formulas (I) and (II) to Sb9. […] The saturation period was 3.0 seconds with irradiation at 0.7 ppm (on-resonance excitation) and 20 ppm (off-resonance excitation). The number of scans was 800. The spectra were processed using Topspin software with 1.0 Hz line-broadening.
The Saturation-Transfer Difference (STD) NMR assay as described herein was used to evaluate the binding of the compound of Formula (III) to Sb9.

LLC1 mouse lung tumors = assay: LLC1 lung tumor model in C57BL/6 mice; type: in vivo; conditions: 300 μg i.p. bid for 21 days
Excerpt: FIGS. 6P-6Q. […] Data are expressed as means±SEM. *P<0.05 (Student's t-test). Mean survival time (MST) is increased in mice treated with the compound of Formula (III) as compared to Control group (FIG. 6Q).
Furthermore, similar antitumor effects and increased MST using the compound of Formula (III) in two other in vivo tumor models were observed: Renca renal cell carcinoma and LLC1 lung cancer (FIGS. 6M-6Q). Thus, inhibition of Sb9 by the compound of Formula (III) has potent anti-tumor effects in a broad spectrum of tumors, including melanomas as well as breast, lung, and kidney tumors.

[1] = In vivo toxicity (CBC, serum chemistry, H&E); design: species or system mouse; conditions: 300 μg i.p. twice a day for 14 days
Protocol: To further assess the in vivo toxicity of the compound of Formula (III), 300 μg of the compound of Formula (III) was administered twice a day intraperitoneally for 14 days.

Sb9-GrB complex = target: T2, Sb9-GrB complex (Mus musculus, UniProt F7A2V8); assay: Western blot of Sb9-GrB complex in B16 cells; type: cell-based; conditions: 50 μM, 200 μM, 600 μM, concentration-dependent
T2 construct: endogenous in cells
Protocol: FIG. 4G. […] Sb9-GrB complex (com), unbound Sb9 (mono), and complex degradation products or cleaved Sb9 (deg) are indicated by arrows. GAPDH was used as a loading control for protein normalization.
Lysates of cells and tissues were measured using the Bradford assay. Equal amounts of protein were separated by SDS-PAGE and transferred to a PVDF membrane. The membranes were immunoblotted with the following specific antibodies: anti-rabbit IgG-HRP (Sigma-Aldrich), anti-rat IgG-HRP (Sigma-Aldrich), and anti-GAPDH (Sigma-Aldrich), using standard protocols. The blots were developed with West Dura chemiluminescent substrates using a Bio-Rad ChemiDoc imaging system.

[2] = system: B16-Sb9 KO melanoma cells; assay: Apoptosis by flow cytometry (Annexin-V, viability dye) in Sb9 knockout cells; type: cell-based, mouse; conditions: 50 μM, 100 μM, and 200 μM
Protocol: FIG. 5M. […] Cells treated with PBS alone were used as a negative control. Data are expressed as means±SD from three independent experiments.
(§1) To evaluate the off-target effects of the compound of Formula (III) to Sb9 proteins, the B16-Sb9 KO melanoma cells were treated with various concentrations of the compound of Formula (III). […] Furthermore, the antitumor effects of the compound of Formula (III) on the Sb9 KO mice bearing B16-Sb9 KO tumors, as compared to control group were not observed (FIG. 5N).

B16-Sb9 KO cells = assay: RT-PCR gene expression in B16-Sb9 KO cells; type: cell-based, mouse
Protocol: Total RNA was prepared from cells using the Quick-RNA MiniPrep kit (Zymo Research, Irvine, Calif., USA), according to the manufacturer's instructions. cDNA was prepared from total RNA using SuperScript III Reverse Transcriptase (Invitrogen). Following reverse transcription, quantitative PCR was performed using a cycling profile consisting of 95° C. for 2 min (Stage I), 30 cycles of 95° C. for 20 s, 58° C. for 30 s, and 70° C. for 30 s (Stage II), and 65° C. for 5 s (Stage III). Fold changes were determined by subtracting Cq values of the loading control from the Cq values of the gene of interest. The results were normalized to untreated controls.
as §1

T2 sequence (F7A2V8 1-374, one chain of several): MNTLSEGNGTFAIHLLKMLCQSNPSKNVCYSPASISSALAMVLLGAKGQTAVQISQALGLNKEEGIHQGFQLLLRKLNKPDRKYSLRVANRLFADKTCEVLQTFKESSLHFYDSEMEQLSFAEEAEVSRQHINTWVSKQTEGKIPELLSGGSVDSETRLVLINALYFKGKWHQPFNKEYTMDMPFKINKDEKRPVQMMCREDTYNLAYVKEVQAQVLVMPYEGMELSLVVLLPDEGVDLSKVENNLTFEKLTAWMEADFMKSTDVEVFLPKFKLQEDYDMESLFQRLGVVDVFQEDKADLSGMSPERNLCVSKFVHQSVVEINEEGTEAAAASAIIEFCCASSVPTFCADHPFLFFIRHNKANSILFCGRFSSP

## O=C(O)c1ccc2ncoc2c1 [Formula (III), 1,3-benzoxazole-6-carboxylic acid]
MBP
  binding to MBP (negative control): not to MBP
MBP-Sb9; 420 μM compound, 45 μM Sb9 protein, PBS pH 7.0, 25° C.
  binding to MBP-Sb9 by STD NMR: confirmed the binding activity
MBP-Sb9; 450 μM compound, 45 μM Sb9, various pH values
  pH dependence of binding to MBP-Sb9 by STD NMR: enhanced significantly at lower pH
LLC1 mouse lung tumors
  Mean survival time (MST) vs Control: increased
LLC1 mouse lung tumors; C57BL/6-WT mice
  tumor growth vs control: significantly slower growth
[1]
  CBC: WBC, HGB, and PLT vs control: no significant difference
  serum AST, ALT, CRE, and ALB levels vs control: similar
  toxicity to liver, kidney, lung, and heart tissues (H&E staining): no toxicity
Sb9-GrB complex
  expression of the Sb9-GrB complex: reduced the expression of the Sb9-GrB complex
[2]
  additional apoptosis in Sb9 knockout cells (off-target): No additional apoptotic effect
B16-Sb9 KO cells
  gene expression of caspase-3/8, P53, and Bcl-2: no significant effect
